How the values were obtained:
[1] = molecular target: T1, recombinant human prolyl oligopeptidase (PREP) (Homo sapiens, UniProt P48147); test: Selective assay, protease inhibition (PREP); type: biochemical; details: substrate Z-Gly-Pro-AMC
T1 sequence (P48147 1-710): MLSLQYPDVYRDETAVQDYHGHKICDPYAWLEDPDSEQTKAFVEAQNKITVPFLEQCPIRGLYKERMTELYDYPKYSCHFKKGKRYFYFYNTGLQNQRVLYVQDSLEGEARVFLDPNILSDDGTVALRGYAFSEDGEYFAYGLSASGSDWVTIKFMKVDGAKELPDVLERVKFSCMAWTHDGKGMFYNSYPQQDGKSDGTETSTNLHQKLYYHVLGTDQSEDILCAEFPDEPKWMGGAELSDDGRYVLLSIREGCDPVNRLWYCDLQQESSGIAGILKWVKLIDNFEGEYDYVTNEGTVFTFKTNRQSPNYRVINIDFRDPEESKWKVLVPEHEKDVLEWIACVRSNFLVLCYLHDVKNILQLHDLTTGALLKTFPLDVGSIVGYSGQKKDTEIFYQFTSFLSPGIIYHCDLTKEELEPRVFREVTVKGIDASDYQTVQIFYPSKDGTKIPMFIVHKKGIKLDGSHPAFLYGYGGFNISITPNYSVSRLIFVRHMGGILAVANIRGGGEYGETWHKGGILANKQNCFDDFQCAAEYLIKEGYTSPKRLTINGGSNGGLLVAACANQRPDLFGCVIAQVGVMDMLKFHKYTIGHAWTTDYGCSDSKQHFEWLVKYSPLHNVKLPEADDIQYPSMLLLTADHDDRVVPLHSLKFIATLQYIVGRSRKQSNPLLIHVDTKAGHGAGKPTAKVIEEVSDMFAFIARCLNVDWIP
Protocol: The specificity of the synthesized compounds against recombinant human dipeptidyl peptidase IV (DPPIV), fibroblast activation protein (FAP), or prolyl oligopeptidase (PREP) was expressed by their half-maximal inhibitory concentration (IC50) against the proteases.
1) The synthesized compound was dissolved in DMSO to a final concentration of 100 mM.
c) For PREP assay: The test compound was diluted to a 1 mM solution using a 140 mM NaCl buffer at pH 8.0.
2) The prepared 1 mM test compound solution was serially diluted (1:10) into a row of a 96-well plate using the corresponding buffer mentioned above.
3) The substrate was prepared as a DMSO stock solution (FAP and PREP: 2.5 mM Z-Gly-Pro-AMC (VWR, Cat. No. I-1145.0050BA) in DMSO; DPPIV: 100 mM Gly-Pro-AMC (VWR, Cat. No. 100042-646) in DMSO), and subsequently the substrate stock solution was diluted 20-fold using the corresponding buffer mentioned above.
4) The enzyme was diluted into the appropriate assay buffer. The final concentrations of DPPIV, FAP, and PREP were […], respectively. To each required well in columns 2-10, 180 μL was added separately. Column 1 (A, B, C) was prepared with 200 μL of the appropriate assay buffer as a control. Column 1 (D, E, F, G, H) was prepared using 20 μL of appropriate assay buffer and 180 μL of enzyme as an inhibitor-free control. […]
7) Fluorescence was measured at λex: 380, λem: 460. […]

[2] = system: HT1080 cell line with high FAP expression; test: Therapeutic experiment of ^177Lu-labeled compounds in tumor-bearing mice; type: in vivo, Balb/c Nude mice; details: ^177Lu-labeled compound
Protocol: Balb/c Nude tumor-bearing mice (supplier: Shanghai Alamo Pharmaceutical Technology Co., Ltd., HT1080 cell line with high FAP expression) aged approximately 6-8 weeks were randomly assigned to 13 experimental groups based on tumor volume, with 5 mice per group. Animal body weight and tumor size were measured, and administration was initiated on the grouping day starting with Group 1 (control group: normal saline). General health and appearance were observed daily after the start of the experiment. Animal body weight and tumor size were measured before each sample collection time point. Any abnormal observations detected during the entire study period were required to be recorded in the raw data.
The synthesized compounds were labeled with ^177Lu and subsequently utilized in the therapeutic assay on mouse tumor models. […] Furthermore, no significant changes in mouse body weight (FIG. 8) were observed throughout the experimental period.
• TGI^TV: Relative tumor inhibition rate (TGI^TV): TGI^TV (%)=[1−(Ti−T0)/(Vi−V0)]×100%; • (Ti: average tumor volume of the treatment group on day i of administration, TO: average tumor volume of the treatment group on day 0 of administration; Vi: average tumor volume of the solvent control group on day i of administration, V0: average tumor volume of the solvent control group on day 0 of administration) • T/C: T/C % is one of the most commonly used indicators for tumor response to treatment: T/C %=T/C*100%; • (T represents the average tumor volume of the treatment group at a specific time point; C represents the average tumor volume of the control group at a specific time point.)
The differences between the treatment groups (tumor volumes of the second, third, fourth, and fifth groups) and the control group (tumor volume of the first group) and between the tumor volumes of the first, third, fourth, and fifth groups and the tumor volume of the second group were analyzed using the two-way ANOVA Fisher's LSD test method. P-values less than 0.05 were considered statistically significant. Both statistical significance and biological significance were taken into account during the result analysis.

Question: What does the source list for `N#C[C@@H]1CC(F)(F)CN1C(=O)CNC(=O)c1cccc2c1CCN(C(=O)CCC(=O)NCCNC(=O)CCC(C(=O)O)N1CCN(CC(=O)O)CCN(CC(=O)O)CCN(CC(=O)O)CC1)C2` (some centres unmarked) [JHH5]?
Answer: IC50 [1]: > 1000 nM; therapeutic effects in mouse tumor model [2]: dose-dependent therapeutic effects

Reference: patent publication US20260226049A1, “NITROGEN-CONTAINING HETEROCYCLIC COMPOUND, PREPARATION METHOD THEREFOR, AND USE THEREOF” (BIVISION PHARMACEUTICALS, INC, priority 2023, published 2026)
